Test results published in ChEMBL document CHEMBL3588828, “A Selective, Cell-Permeable Nonphosphorylated Bicyclic Peptidyl Inhibitor against Peptidyl-Prolyl Isomerase Pin1” (J Med Chem, 2015).
Activity calls are given as the source filed them. The rule behind the calls is not given here.

Key:
HeLa [1] = experiment: Growth inhibition of human HeLa cells at 5 uM incubated for 3 days by MTT assay; format: functional
[2] = target: T1, Peptidyl-prolyl cis-trans isomerase NIMA-interacting 1 (Homo sapiens, UniProt Q13526, S16A/Y23A); experiment: Binding affinity to N-terminal MBP fused and Texas-red-labeled full-length human Pin1 S16A/Y23A mutant expressed in Escherichia coli assessed as increase in fluorescence anisotropy by spectrofluorimetry
HeLa [3] = experiment: Drug uptake in human HeLa cells assessed as mean fluorescence intensity at 5 uM using FITC-labeled compound incubated for 2 hrs by flow cytometry (reference value: 86); format: ADME, cell-based
HeLa [4] = experiment: Antiproliferative activity against human HeLa cells assessed as reduction in cell growth incubated for 72 hrs by MTT assay; format: functional, cell-based
[5] = target: Peptidyl-prolyl cis-trans isomerase NIMA-interacting 1 (Homo sapiens) (UniProt Q13526); experiment: Inhibition of Pin1 in human HeLa cells assessed as increase in PML protein levels at 0.2 to 5 uM incubated for 2 hrs by Western blotting method relative to untreated control; format: cell-based
[6] = target: T2, Tyrosine-protein phosphatase non-receptor type 11 (Homo sapiens) (UniProt Q06124); experiment: Binding affinity to SHP2 (unknown origin)
T2 sequence (whole entry): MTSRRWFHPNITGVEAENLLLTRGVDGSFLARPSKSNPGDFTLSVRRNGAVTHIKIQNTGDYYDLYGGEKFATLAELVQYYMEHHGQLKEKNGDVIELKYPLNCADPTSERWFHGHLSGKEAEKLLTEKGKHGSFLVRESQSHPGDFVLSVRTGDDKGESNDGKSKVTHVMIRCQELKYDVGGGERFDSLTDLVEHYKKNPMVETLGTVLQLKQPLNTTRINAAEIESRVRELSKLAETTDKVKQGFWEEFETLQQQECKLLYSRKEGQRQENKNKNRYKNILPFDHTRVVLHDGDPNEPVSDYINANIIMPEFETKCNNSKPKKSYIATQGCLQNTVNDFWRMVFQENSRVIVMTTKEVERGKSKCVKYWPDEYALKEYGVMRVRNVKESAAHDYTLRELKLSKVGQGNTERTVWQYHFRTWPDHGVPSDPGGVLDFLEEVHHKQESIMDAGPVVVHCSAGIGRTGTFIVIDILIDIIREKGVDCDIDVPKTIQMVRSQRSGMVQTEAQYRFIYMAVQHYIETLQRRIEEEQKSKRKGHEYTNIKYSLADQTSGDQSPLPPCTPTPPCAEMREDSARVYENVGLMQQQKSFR

[7] = target: T3, Peptidyl-prolyl cis-trans isomerase NIMA-interacting 4 (Homo sapiens, UniProt Q9Y237); experiment: Inhibition of Pin4 (unknown origin) pre-incubated for 10 mins before addition of Suc-Ala-Glu-Pro-Phe-pNA substrate in presence of alpha-chymotrypsin by UV/Vis spectrophotometry
[8] = target: Tumor necrosis factor (Homo sapiens) (UniProt P01375); experiment: Binding affinity to TNFalpha (unknown origin)
[9] = target: T3, Peptidyl-prolyl cis-trans isomerase NIMA-interacting 4; experiment: Inhibition of Pin4 (unknown origin) at 5 uM pre-incubated for 10 mins before addition of Suc-Ala-Glu-Pro-Phe-pNA substrate in presence of alpha-chymotrypsin by UV/Vis spectrophotometry
[10] = target: Peptidyl-prolyl cis-trans isomerase NIMA-interacting 1 (Homo sapiens) (UniProt Q13526); experiment: Inhibition of Pin1 in human HeLa cells assessed as increase in PML protein levels at 0.2 uM incubated for 2 hrs by Western blotting method relative to untreated control; format: cell-based
[11] = target: Peptidyl-prolyl cis-trans isomerase A (Homo sapiens) (UniProt P62937); experiment: Inhibition of cyclophilin A (unknown origin) up to 5 uM pre-incubated for 10 mins before addition of Suc-Ala-Glu-Pro-Phe-pNA substrate in presence of alpha-chymotrypsin by UV/Vis spectrophotometry
[12] = target: Peptidyl-prolyl cis-trans isomerase NIMA-interacting 1 (Homo sapiens) (UniProt Q13526); experiment: Inhibition of Pin1 in human HeLa cells assessed as increase in PML protein levels at 1 uM incubated for 2 hrs by Western blotting method relative to untreated control; format: cell-based
[13] = Stability in 25% human serum assessed as intact parent compound level at 5 uM after 6 hrs incubated at 37 degC by reversed-phase HPLC method; format: ADME, cell-free; conditions: read-out: Stability
Albumin = Albumin (Bos taurus, UniProt P02769); experiment: Binding affinity to bovine serum albumin; format: ADME
[14] = target: T1, Peptidyl-prolyl cis-trans isomerase NIMA-interacting 1; experiment: (§1) Inhibition of N-terminal MBP fused and Texas-red-labeled full-length human Pin1 S16A/Y23A mutant expressed in Escherichia coli pre-incubated for 10 mins before addition of Suc-Ala-Glu-Pro-Phe-pNA substrate in presence of alpha-chymotrypsin by UV/Vis spectrophotometry
[15] = system: Peptidyl-prolyl cis-trans isomerase NIMA-interacting 1 (Homo sapiens), Q13526 [S16A,Y23A]; experiment: as §1
[16] = target: T1, Peptidyl-prolyl cis-trans isomerase NIMA-interacting 1; experiment: (§2) Inhibition of FITC-labeled peptide-1 binding to N-terminal MBP fused and Texas-red-labeled full-length human Pin1 S16A/Y23A mutant expressed in Escherichia coli assessed as increase in fluorescence anisotropy by spectrofluorimetry
[17] = system: Peptidyl-prolyl cis-trans isomerase NIMA-interacting 1 (Homo sapiens), Q13526 [S16A,Y23A]; experiment: as §2
FKBP1A = experiment: Inhibition of FKBP12 (unknown origin) up to 5 uM pre-incubated for 10 mins before addition of Suc-Ala-Glu-Pro-Phe-pNA substrate in presence of alpha-chymotrypsin by UV/Vis spectrophotometry; conditions: Homo sapiens
[18] = target: T4, Tyrosine-protein phosphatase non-receptor type 1 (Homo sapiens) (UniProt P18031); experiment: Binding affinity to PTP1B (unknown origin)
T4 sequence (whole entry): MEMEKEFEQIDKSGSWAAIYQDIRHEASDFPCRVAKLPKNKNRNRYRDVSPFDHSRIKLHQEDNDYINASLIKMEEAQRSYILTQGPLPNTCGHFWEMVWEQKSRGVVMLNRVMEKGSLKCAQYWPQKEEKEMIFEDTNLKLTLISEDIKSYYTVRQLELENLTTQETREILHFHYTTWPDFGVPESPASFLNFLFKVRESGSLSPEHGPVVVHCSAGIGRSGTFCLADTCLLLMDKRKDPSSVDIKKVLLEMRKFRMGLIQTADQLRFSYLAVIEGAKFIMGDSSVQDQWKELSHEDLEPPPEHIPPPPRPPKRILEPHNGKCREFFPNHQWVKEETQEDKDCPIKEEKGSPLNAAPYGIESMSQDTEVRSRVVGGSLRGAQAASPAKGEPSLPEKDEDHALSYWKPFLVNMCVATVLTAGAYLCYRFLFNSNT

[19] = target: Tyrosine-protein phosphatase non-receptor type 6 (Homo sapiens) (UniProt P29350); experiment: Binding affinity to SHP1 (unknown origin)
[20] = target: Growth factor receptor-bound protein 2 (Homo sapiens) (UniProt P62993); experiment: Binding affinity to Grb2 SH2 domain (unknown origin)
[21] = target: GTPase KRas (Homo sapiens) (UniProt P01116); experiment: Binding affinity to K-Ras (unknown origin)
[22] = Stability in 25% human serum assessed as compound degradation at 5 uM after 3 hrs incubated at 37 degC by reversed-phase HPLC method; format: ADME, cell-free; conditions: read-out: Drug degradation
Serum [23] = experiment: Drug metabolism in 25% human serum assessed as compound 2 formation at 5 uM incubated at 37 degC by MALDI-TOF mass spectrometry; format: ADME, cell-free
Serum [24] = experiment: Drug level in 25% human serum treated with at 5 uM peptide-1 assessed as compound formation incubated at 37 degC by MALDI-TOF mass spectrometry; format: ADME, cell-free
[25] = Homo sapiens, HeLa, 72 h, read-out: IC50

T3 sequence (Q9Y237 whole entry): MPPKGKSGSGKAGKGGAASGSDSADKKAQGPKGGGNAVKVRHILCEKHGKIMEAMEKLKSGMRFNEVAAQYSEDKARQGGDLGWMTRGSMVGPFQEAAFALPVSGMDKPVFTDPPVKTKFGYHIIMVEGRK
Tyrosine-protein phosphatase non-receptor type 6 (Homo sapiens), sequence (P29350 whole entry, the tested form may be a part): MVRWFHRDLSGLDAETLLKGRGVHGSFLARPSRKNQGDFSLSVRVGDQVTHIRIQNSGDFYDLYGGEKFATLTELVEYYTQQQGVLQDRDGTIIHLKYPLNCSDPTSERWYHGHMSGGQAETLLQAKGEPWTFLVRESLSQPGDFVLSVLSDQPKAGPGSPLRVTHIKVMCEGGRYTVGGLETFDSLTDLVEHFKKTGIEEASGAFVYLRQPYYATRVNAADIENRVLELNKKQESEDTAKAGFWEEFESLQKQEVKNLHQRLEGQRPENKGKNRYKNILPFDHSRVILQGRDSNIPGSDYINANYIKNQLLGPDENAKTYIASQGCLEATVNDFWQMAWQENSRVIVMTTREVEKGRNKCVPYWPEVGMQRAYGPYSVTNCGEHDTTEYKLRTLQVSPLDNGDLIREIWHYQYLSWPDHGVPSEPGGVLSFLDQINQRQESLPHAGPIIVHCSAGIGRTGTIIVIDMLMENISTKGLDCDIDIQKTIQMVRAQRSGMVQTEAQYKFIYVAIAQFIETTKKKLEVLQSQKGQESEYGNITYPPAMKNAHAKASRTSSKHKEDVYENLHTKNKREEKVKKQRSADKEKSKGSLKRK
GTPase KRas (Homo sapiens), sequence (P01116 whole entry, looked up): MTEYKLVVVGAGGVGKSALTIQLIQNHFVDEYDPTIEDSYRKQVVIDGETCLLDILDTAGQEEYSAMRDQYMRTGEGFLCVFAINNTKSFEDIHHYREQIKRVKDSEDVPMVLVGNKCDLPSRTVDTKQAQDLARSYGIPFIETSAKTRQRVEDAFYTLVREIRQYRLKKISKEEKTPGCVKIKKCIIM
Albumin, sequence (P02769 whole entry, the tested form may be a part): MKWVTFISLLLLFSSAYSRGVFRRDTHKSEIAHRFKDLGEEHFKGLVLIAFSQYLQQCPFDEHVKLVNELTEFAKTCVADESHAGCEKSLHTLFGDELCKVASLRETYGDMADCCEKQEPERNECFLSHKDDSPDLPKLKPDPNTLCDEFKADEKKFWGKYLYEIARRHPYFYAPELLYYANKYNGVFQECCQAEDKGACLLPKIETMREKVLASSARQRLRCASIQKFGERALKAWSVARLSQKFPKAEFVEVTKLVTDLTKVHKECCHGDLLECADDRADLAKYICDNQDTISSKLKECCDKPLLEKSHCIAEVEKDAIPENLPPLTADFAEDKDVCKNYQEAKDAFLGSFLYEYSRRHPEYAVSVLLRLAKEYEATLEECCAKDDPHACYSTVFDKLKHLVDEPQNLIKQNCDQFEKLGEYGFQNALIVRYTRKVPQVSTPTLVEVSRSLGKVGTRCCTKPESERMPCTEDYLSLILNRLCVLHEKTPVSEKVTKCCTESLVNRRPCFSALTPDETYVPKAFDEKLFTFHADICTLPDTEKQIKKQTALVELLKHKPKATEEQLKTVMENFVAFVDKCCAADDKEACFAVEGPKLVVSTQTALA
Tumor necrosis factor (Homo sapiens), sequence (P01375 whole entry): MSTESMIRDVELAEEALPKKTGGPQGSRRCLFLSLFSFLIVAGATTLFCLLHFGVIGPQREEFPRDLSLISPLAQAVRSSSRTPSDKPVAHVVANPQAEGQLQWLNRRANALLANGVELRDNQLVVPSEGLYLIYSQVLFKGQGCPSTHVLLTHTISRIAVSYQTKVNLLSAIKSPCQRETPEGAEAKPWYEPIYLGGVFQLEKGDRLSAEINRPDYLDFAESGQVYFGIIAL
Growth factor receptor-bound protein 2 (Homo sapiens), sequence (P62993 whole entry, looked up, the tested form may be a part): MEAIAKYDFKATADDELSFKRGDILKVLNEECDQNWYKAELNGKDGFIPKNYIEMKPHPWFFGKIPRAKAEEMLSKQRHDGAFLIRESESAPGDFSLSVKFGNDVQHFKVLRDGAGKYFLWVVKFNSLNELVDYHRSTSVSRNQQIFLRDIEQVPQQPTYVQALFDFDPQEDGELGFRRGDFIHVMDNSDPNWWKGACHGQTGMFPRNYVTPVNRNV
Peptidyl-prolyl cis-trans isomerase A (Homo sapiens), sequence (P62937 whole entry, looked up): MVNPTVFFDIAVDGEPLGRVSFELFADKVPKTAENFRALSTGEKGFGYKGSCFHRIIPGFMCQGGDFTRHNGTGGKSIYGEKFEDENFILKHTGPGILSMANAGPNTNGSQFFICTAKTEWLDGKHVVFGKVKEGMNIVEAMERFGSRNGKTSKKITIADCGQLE

With C[C@H](OP(=O)(O)O)[C@H]1NC(=O)CN(C)C(=O)[C@@H](C)NC(=O)[C@H](CCCCN)NC(=O)[C@H](Cc2ccc(O)cc2)NC(=O)[C@H](Cc2ccc3ccccc3c2)NC(=O)[C@H]2CCCCN2C1=O the “growth inhibition (GI)” value (HeLa [1]) was “inactive”, the Kd ([2]; read-out: Kd) was 240 nM and the Flu intensity (HeLa [3]) was 193. For the same compound, the IC50 (HeLa [4]; hela) was “Not Active”.
In the case of C[C@@H]1NC(=O)[C@H](CCCNC(=N)N)NC(=O)[C@H](Cc2ccc3ccccc3c2)NC(=O)[C@@H](C)NC(=O)[C@@H]([C@H](C)O)NC(=O)CN(C)C(=O)[C@@H](C)NC(=O)c2cc3cc(c2)C(=O)NC[C@H](NC(=O)[C@@H](C)NC1=O)C(=O)N[C@@H](Cc1ccccc1)C(=O)N[C@@H](Cc1ccc2ccccc2c1)C(=O)N[C@@H](CCCNC(=N)N)C(=O)N[C@@H](CCCNC(=N)N)C(=O)N[C@@H](CCCNC(=N)N)C(=O)N[C@@H](CCCNC(=N)N)C(=O)N[C@H](C(=O)N[C@@H](CCCCN)C(=O)O)CNC3=O, the “growth inhibition (GI)” value (HeLa [1]) is reported as “inactive”, the Kd [2] is reported as “Not Active” and the inhibition [5] is reported as “inactive”. The Flu intensity (HeLa [3]) was 8730 and the IC50 (HeLa [4]; hela) was “Not Active”.
In the case of C[C@@H]1NC(=O)[C@H](CCCNC(=N)N)NC(=O)[C@H](Cc2ccc3ccccc3c2)NC(=O)[C@H]2CCCCN2C(=O)[C@@H]([C@H](C)O)NC(=O)[C@H](Cc2ccc(F)cc2)NC(=O)[C@@H](Cc2ccc(F)cc2)NC(=O)c2cc3cc(c2)C(=O)NC[C@H](NC(=O)[C@@H](C)NC1=O)C(=O)N[C@@H](Cc1ccccc1)C(=O)N[C@@H](Cc1ccc2ccccc2c1)C(=O)N[C@@H](CCCNC(=N)N)C(=O)N[C@@H](CCCNC(=N)N)C(=O)N[C@@H](CCCNC(=N)N)C(=O)N[C@@H](CCCNC(=N)N)C(=O)N[C@H](C(=O)N[C@@H](CCCCN)C(=O)O)CNC3=O, the Activity [6] is reported as “inactive”, the inhibition of growth at 5 µM (HeLa [1]; 72 h, read-out: GI) is reported as greater than 60% and the IC50 [7] is reported as 34000 nM. The Kd ([2]; read-out: Kd) was 120 nM, the Activity [8] was “inactive” and the inhibition [9] was 15%. The fold change (FC) [10] was 1.8, the Flu intensity (HeLa [3]) was 8320 and the inhibition [11] was “inactive”. For the same compound, the fold change (FC) [12] was 3.3, the remaining at 6 h, 5 µM [13] was 97% and the Kd (Albumin) was 20000 nM. The IC50 [14] was 170 nM, the inhibition [15] was “Dose-dependent effect” and the IC50 [16] was 190 nM. The inhibition [17] was “Dose-dependent effect”, the IC50 (HeLa [4]; [25]) was 1000 nM and the inhibition (FKBP1A) was “inactive”. The Activity [18] was “inactive”, the Activity [19] was “inactive” and the Activity [20] was “inactive”. For the same compound, the Activity [21] was “inactive”.
Work on C[C@@H]1NC(=O)[C@H](CCCNC(=N)N)NC(=O)[C@H](Cc2ccc3ccccc3c2)NC(=O)[C@@H]2CCCCN2C(=O)[C@@H]([C@H](C)OP(=O)(O)O)NC(=O)CN(C)C(=O)[C@@H](C)NC(=O)c2cc3cc(c2)C(=O)NC[C@H](NC(=O)[C@@H](C)NC1=O)C(=O)N[C@@H](Cc1ccccc1)C(=O)N[C@@H](Cc1ccc2ccccc2c1)C(=O)N[C@@H](CCCNC(=N)N)C(=O)N[C@@H](CCCNC(=N)N)C(=O)N[C@@H](CCCNC(=N)N)C(=O)N[C@@H](CCCNC(=N)N)C(=O)N[C@H](C(=O)N[C@@H](CCCCN)C(=O)O)CNC3=O yielded a Kd ([2]; read-out: Kd) of 72 nM, a metabolised at 3 h, 5 µM [22] of 50% and a Flu intensity (HeLa [3]) of 2040. For the same compound, the Drug metabolism (Serum [23]) was “metabolite_detected” and the IC50 (HeLa [4]; [25]) was 2500 nM.
With C[C@@H]1NC(=O)[C@H](CCCNC(=N)N)NC(=O)[C@H](Cc2ccc3ccccc3c2)NC(=O)[C@@H]2CCCCN2C(=O)[C@@H]([C@H](C)O)NC(=O)CN(C)C(=O)[C@@H](C)NC(=O)c2cc3cc(c2)C(=O)NC[C@H](NC(=O)[C@@H](C)NC1=O)C(=O)N[C@@H](Cc1ccccc1)C(=O)N[C@@H](Cc1ccc2ccccc2c1)C(=O)N[C@@H](CCCNC(=N)N)C(=O)N[C@@H](CCCNC(=N)N)C(=O)N[C@@H](CCCNC(=N)N)C(=O)N[C@@H](CCCNC(=N)N)C(=O)N[C@H](C(=O)N[C@@H](CCCCN)C(=O)O)CNC3=O the Kd ([2]; read-out: Kd) was 620 nM and the Drug metabolism (Serum [24]) was “metabolite_detected”.
